Data taken from PubChem BioAssay AID256 (DTP/NCI, 2004).
Values joined by “and” are separate entries in the source; they are usually repeats but may differ in a detail not shown here. Equal entries are not always repeated. Toxic doses and inconclusive results are not listed. How the source made its calls: active means survival T/C of 150% or more; inactive means T/C below 125% in these data. Positions of bridges follow the written chain, without caps; N, C: chain ends. Residues, ends and D or L forms follow the SMILES beside them.

System: CD2F1 mice, L1210 leukemia ip, survival T/C
Assay: NCI In Vivo Anticancer Drug Screen. Data for tumor model L1210 Leukemia (intraperitoneal) in CD2F1 (CDF1) mice
Conditions: higher = longer survival
Method in brief: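 Transplantable tumor in mice; compound-treated vs vehicle-treated groups. Read-out = treated/control ratio of the measured endpoint.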

[1] = endpoint: mean survival time, dose: 100.0 mg/kg/injection, schedule: Q04DX002 (ip), vehicle: saline with Tween-80
[2] = endpoint: mean survival time, dose: 200.0 mg/kg/injection, schedule: Q04DX002 (ip), vehicle: saline with Tween-80
[3] = endpoint: mean survival time, dose: 25.0 mg/kg/injection, schedule: Q04DX003 (ip), vehicle: saline with Tween-80
[4] = endpoint: mean survival time, dose: 50.0 mg/kg/injection, schedule: Q04DX003 (ip), vehicle: saline with Tween-80
[5] = endpoint: mean survival time, dose: 100.0 mg/kg/injection, schedule: Q04DX003 (ip), vehicle: saline with Tween-80
[6] = endpoint: mean survival time, dose: 200.0 mg/kg/injection, schedule: Q04DX003 (ip), vehicle: saline with Tween-80
[7] = endpoint: mean survival time, dose: 400.0 mg/kg/injection, schedule: Q04DX003 (ip), vehicle: saline with Tween-80
[8] = endpoint: mean survival time, dose: 6.25 mg/kg/injection, schedule: Q01DX009 (ip), vehicle: Klucel (hydroxypropylcellulose) (HPC)
[9] = endpoint: mean survival time, dose: 12.5 mg/kg/injection, schedule: Q01DX009 (ip), vehicle: Klucel (hydroxypropylcellulose) (HPC)
[10] = endpoint: mean survival time, dose: 25.0 mg/kg/injection, schedule: Q04DX002 (ip), vehicle: saline with Tween-80
[11] = endpoint: mean survival time, dose: 50.0 mg/kg/injection, schedule: Q04DX002 (ip), vehicle: saline with Tween-80
[12] = endpoint: mean survival time, dose: 100.0 mg/kg/injection, schedule: Q01DX001 (ip), vehicle: saline with Tween-80
[13] = endpoint: mean survival time, dose: 200.0 mg/kg/injection, schedule: Q01DX001 (ip), vehicle: saline with Tween-80
[14] = endpoint: mean survival time, dose: 400.0 mg/kg/injection, schedule: Q01DX001 (ip), vehicle: saline with Tween-80
[15] = endpoint: mean survival time, dose: 400.0 mg/kg/injection, schedule: Q04DX002 (ip), vehicle: saline with Tween-80

Measured: T/C

CCC(C)C1NC(=O)C(CC(C)C)NC(=O)C(C(C)C)NC(=O)C2CSSCC(NC1=O)C(=O)N2 (stereo not drawn) (cyclo(CCVLI); disulfide 1-2; configuration not given here)
inactive: endpoint: mean survival time, dose: 31.25 micrograms/kg/injection, schedule: Q01DX009 (ip), vehicle: Klucel (hydroxypropylcellulose) (HPC) 93 % of control | endpoint: mean survival time, dose: 62.5 micrograms/kg/injection, schedule: Q01DX009 (ip), vehicle: Klucel (hydroxypropylcellulose) (HPC) 95 % of control | endpoint: mean survival time, dose: 125.0 micrograms/kg/injection, schedule: Q01DX009 (ip), vehicle: Klucel (hydroxypropylcellulose) (HPC) 98 % of control | endpoint: mean survival time, dose: 250.0 micrograms/kg/injection, schedule: Q01DX009 (ip), vehicle: Klucel (hydroxypropylcellulose) (HPC) 96 % of control | endpoint: mean survival time, dose: 500.0 micrograms/kg/injection, schedule: Q01DX009 (ip), vehicle: Klucel (hydroxypropylcellulose) (HPC) 98 % of control | endpoint: mean survival time, dose: 1000.0 micrograms/kg/injection, schedule: Q01DX009 (ip), vehicle: Klucel (hydroxypropylcellulose) (HPC) 96 % of control

COc1c(NC(=O)Nc2cccc(Cl)c2)cccc1[N+](=O)[O-]
inactive: [1] 92 % of control | [2] 88 % of control

[O-][n+]1c2ccccc2c(Oc2ccccc2)c2ccc3ccccc3c21
inactive: [3] 98 % of control | [4] 95 % of control | [5] 86 % of control

Cc1cn(C2CC3O[P@](=S)(Nc4ccccc4)OCC3O2)c(=O)[nH]c1=O (stereo partly drawn)
inactive: endpoint: median survival time, dose: 12.75 mg/kg/injection, schedule: Q01DX005 (ip), vehicle: saline with Tween-80 100 % of control | endpoint: median survival time, dose: 25.5 mg/kg/injection, schedule: Q01DX005 (ip), vehicle: saline with Tween-80 100 % of control | endpoint: median survival time, dose: 51.0 mg/kg/injection, schedule: Q01DX005 (ip), vehicle: saline with Tween-80 100 % of control | endpoint: median survival time, dose: 102.0 mg/kg/injection, schedule: Q01DX005 (ip), vehicle: saline with Tween-80 93 % of control

CC(C(=O)O)=C(c1ccccc1)c1ccccc1
inactive: [5] 90 % of control | [6] 93 % of control | [7] 87 % of control

O=C1c2ccccc2C(=O)N1CC(O)COc1ccccc1[N+](=O)[O-] (stereo not drawn)
inactive: [1] 88 % of control | [2] 100 % of control

Nc1ccc(NC(=S)Nc2ccc(N)cc2)cc1
inactive: endpoint: mean survival time, dose: 25.0 mg/kg/injection, schedule: Q04DX003 (ip), vehicle: Klucel (hydroxypropylcellulose) (HPC) 104 % of control | endpoint: mean survival time, dose: 50.0 mg/kg/injection, schedule: Q04DX003 (ip), vehicle: Klucel (hydroxypropylcellulose) (HPC) 106 % of control | endpoint: mean survival time, dose: 100.0 mg/kg/injection, schedule: Q04DX003 (ip), vehicle: Klucel (hydroxypropylcellulose) (HPC) 98 % of control

C=CC1CC(=O)N1Cc1ccccc1 (stereo not drawn)
inactive: [5] 97 % of control | [6] 92 % of control | [7] 92 % of control

COc1cc2c[n+](C)c3c4cc5c(cc4ccc3c2cc1OC)OCO5 (tested in a mixture with another compound)
inactive: endpoint: mean survival time, dose: 3.13 mg/kg/injection, schedule: Q01DX009 (ip), vehicle: other 118 % of control and 112 % of control | endpoint: mean survival time, dose: 5.0 mg/kg/injection, schedule: Q01DX009 (ip), vehicle: saline 119 % of control | [8] 112 % of control | endpoint: mean survival time, dose: 6.25 mg/kg/injection, schedule: Q01DX009 (ip), vehicle: other 117 % of control and 112 % of control | [9] 124 % of control | endpoint: mean survival time, dose: 12.5 mg/kg/injection, schedule: Q01DX009 (ip), vehicle: other 113 % of control and 118 % of control | endpoint: mean survival time, dose: 25.0 mg/kg/injection, schedule: Q01DX009 (ip), vehicle: other 113 % of control and 116 % of control | endpoint: mean survival time, dose: 50.0 mg/kg/injection, schedule: Q01DX009 (ip), vehicle: Klucel (hydroxypropylcellulose) (HPC) 112 % of control

S=c1sc2ccccc2n1CN1CCOCC1
inactive: endpoint: median survival time, dose: 12.5 mg/kg/injection, schedule: Q01DX009 (ip), vehicle: saline with Tween-80 97 % of control and 104 % of control | endpoint: median survival time, dose: 25.0 mg/kg/injection, schedule: Q01DX009 (ip), vehicle: saline with Tween-80 100 % of control | endpoint: median survival time, dose: 50.0 mg/kg/injection, schedule: Q01DX009 (ip), vehicle: saline with Tween-80 101 % of control and 106 % of control | endpoint: median survival time, dose: 100.0 mg/kg/injection, schedule: Q01DX009 (ip), vehicle: saline with Tween-80 101 % of control and 108 % of control | endpoint: median survival time, dose: 200.0 mg/kg/injection, schedule: Q01DX009 (ip), vehicle: saline with Tween-80 98 % of control and 100 % of control

CC(O)C(O)C=O (stereo not drawn)
inactive: endpoint: mean survival time, dose: 72.0 mg/kg/injection, schedule: Q03HX008 (ip), vehicle: saline 100 % of control | endpoint: mean survival time, dose: 120.0 mg/kg/injection, schedule: Q03HX008 (ip), vehicle: saline 97 % of control | endpoint: mean survival time, dose: 200.0 mg/kg/injection, schedule: Q03HX008 (ip), vehicle: saline 102 % of control | endpoint: mean survival time, dose: 248.0 mg/kg/injection, schedule: Q01DX009 (ip), vehicle: saline 101 % of control | endpoint: mean survival time, dose: 346.0 mg/kg/injection, schedule: Q01DX009 (ip), vehicle: saline 104 % of control | endpoint: mean survival time, dose: 576.0 mg/kg/injection, schedule: Q01DX001 (ip), vehicle: saline 97 % of control | endpoint: mean survival time, dose: 576.0 mg/kg/injection, schedule: Q01DX009 (ip), vehicle: saline 107 % of control | endpoint: mean survival time, dose: 960.0 mg/kg/injection, schedule: Q01DX001 (ip), vehicle: saline 94 % of control | endpoint: mean survival time, dose: 1600.0 mg/kg/injection, schedule: Q01DX001 (ip), vehicle: saline 102 % of control

O=C(O)C(O)(C1CCCCC1)C1CCC2CCC3CCCC1C32 (stereo not drawn)
inactive: [5] 105 % of control | [6] 87 % of control | [7] 105 % of control

O=C(NC(=O)c1cn(C2OC(CO)C(O)C2O)nn1)Nc1ccc(Cl)cc1 (stereo not drawn)
inactive: endpoint: mean survival time, dose: 12.5 mg/kg/injection, schedule: Q01DX005 (ip), vehicle: other 93 % of control | endpoint: mean survival time, dose: 50.0 mg/kg/injection, schedule: Q01DX005 (ip), vehicle: other 90 % of control

CC(/C=C/C=C/c1ccccc1)=N\O
inactive: endpoint: mean survival time, dose: 100.0 mg/kg/injection, schedule: Q01DX001 (ip), vehicle: Klucel (hydroxypropylcellulose) (HPC) 101 % of control | endpoint: mean survival time, dose: 200.0 mg/kg/injection, schedule: Q01DX001 (ip), vehicle: Klucel (hydroxypropylcellulose) (HPC) 110 % of control | endpoint: mean survival time, dose: 400.0 mg/kg/injection, schedule: Q01DX001 (ip), vehicle: Klucel (hydroxypropylcellulose) (HPC) 104 % of control

Cc1ccc2ccccc2[n+]1[O-]
inactive: [1] 111 % of control

Nc1cc(C(=O)O)c(O)c(Cl)c1O
inactive: endpoint: mean survival time, dose: 12.5 mg/kg/injection, schedule: Q04DX002 (ip), vehicle: saline with Tween-80 93 % of control | [10] 90 % of control | [11] 97 % of control

COc1ccc(OC)c(C2N(Cc3ccc(N(C)C)cc3)CCCN2Cc2ccc(N(C)C)cc2)c1
inactive: [5] 90 % of control | [6] 87 % of control

Cc1cc(C)c(NC(=O)CC#N)cc1C
inactive: [3] 113 % of control and 93 % of control | [4] 89 % of control and 103 % of control | [12] 100 % of control | [1] 90 % of control | [13] 102 % of control | [2] 102 % of control | [14] 102 % of control | [15] 105 % of control | [7] 93 % of control

O=C(NC1CCC(CC2CCCCC2)CC1)C(Cl)Cl (stereo not drawn)
inactive: [1] 101 % of control | [2] 101 % of control | [15] 89 % of control

CCCCCCCCCCCCCCCCOc1ccc(NS(=O)(=O)c2ccc(NC(C)=O)cc2)cc1
inactive: [12] 96 % of control | endpoint: mean survival time, dose: 100.0 mg/kg/injection, schedule: Q01DX009 (ip), vehicle: Klucel (hydroxypropylcellulose) (HPC) 109 % of control | [13] 91 % of control | endpoint: mean survival time, dose: 200.0 mg/kg/injection, schedule: Q01DX009 (ip), vehicle: Klucel (hydroxypropylcellulose) (HPC) 103 % of control | [14] 93 % of control | endpoint: mean survival time, dose: 400.0 mg/kg/injection, schedule: Q01DX009 (ip), vehicle: Klucel (hydroxypropylcellulose) (HPC) 98 % of control

O=C1CC23CCCN2CCc2cc4c(cc2C3=C1O)OCO4 (stereo not drawn)
inactive: endpoint: mean survival time, dose: 1.56 mg/kg/injection, schedule: Q01DX009 (ip), vehicle: Klucel (hydroxypropylcellulose) (HPC) 102 % of control | endpoint: mean survival time, dose: 3.13 mg/kg/injection, schedule: Q01DX009 (ip), vehicle: Klucel (hydroxypropylcellulose) (HPC) 101 % of control | [8] 104 % of control | [9] 102 % of control | endpoint: mean survival time, dose: 25.0 mg/kg/injection, schedule: Q01DX009 (ip), vehicle: Klucel (hydroxypropylcellulose) (HPC) 95 % of control

CC(=O)C(CNCC(=O)O)(CNCC(=O)O)C(C)=O
inactive: [10] 90 % of control | [11] 94 % of control | [1] 94 % of control
